In patent US20060223846A1, “Aza-bridged-bicyclic amino acid derivatives as alpha4 integrin antagonists” (priority 2005, published 2006):
Where two headings read alike, the source gives them in different places.

Assays:
human α4β7 = biological target: T1, human α4β7 (Homo sapiens, UniProt P13612+P26010); experiment: α4β7-K562 Cell Adhesion Assay (α4β7 Mediated Adhesion/VCAM-1); format: cell-based
T1 construct: expressed in transfected cells
T1 sequence (P13612 34-1032): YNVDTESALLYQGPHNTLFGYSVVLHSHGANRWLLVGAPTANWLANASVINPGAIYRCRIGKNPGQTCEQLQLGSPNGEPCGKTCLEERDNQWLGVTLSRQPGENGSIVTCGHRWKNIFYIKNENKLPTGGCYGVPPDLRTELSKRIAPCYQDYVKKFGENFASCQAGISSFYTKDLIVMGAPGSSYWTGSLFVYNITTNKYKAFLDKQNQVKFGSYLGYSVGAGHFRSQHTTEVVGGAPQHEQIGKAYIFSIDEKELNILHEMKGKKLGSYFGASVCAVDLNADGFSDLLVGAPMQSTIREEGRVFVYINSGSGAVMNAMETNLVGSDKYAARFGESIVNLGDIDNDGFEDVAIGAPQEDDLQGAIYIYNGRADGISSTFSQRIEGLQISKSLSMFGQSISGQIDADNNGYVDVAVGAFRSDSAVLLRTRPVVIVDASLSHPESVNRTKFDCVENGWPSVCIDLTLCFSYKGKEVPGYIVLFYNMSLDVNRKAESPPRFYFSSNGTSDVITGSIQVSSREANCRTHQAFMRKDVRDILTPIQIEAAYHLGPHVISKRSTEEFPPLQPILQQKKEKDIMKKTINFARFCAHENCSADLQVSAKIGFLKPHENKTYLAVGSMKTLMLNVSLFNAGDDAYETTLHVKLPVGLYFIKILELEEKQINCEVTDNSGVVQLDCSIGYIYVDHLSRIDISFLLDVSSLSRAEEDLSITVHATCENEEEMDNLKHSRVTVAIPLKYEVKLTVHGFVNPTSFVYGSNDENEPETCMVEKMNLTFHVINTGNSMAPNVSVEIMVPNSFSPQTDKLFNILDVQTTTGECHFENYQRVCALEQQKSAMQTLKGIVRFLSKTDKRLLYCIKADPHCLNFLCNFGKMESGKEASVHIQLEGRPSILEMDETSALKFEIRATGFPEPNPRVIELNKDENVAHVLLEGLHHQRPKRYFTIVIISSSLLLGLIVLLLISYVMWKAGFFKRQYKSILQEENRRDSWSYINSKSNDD
T1 sequence (P26010 20-798): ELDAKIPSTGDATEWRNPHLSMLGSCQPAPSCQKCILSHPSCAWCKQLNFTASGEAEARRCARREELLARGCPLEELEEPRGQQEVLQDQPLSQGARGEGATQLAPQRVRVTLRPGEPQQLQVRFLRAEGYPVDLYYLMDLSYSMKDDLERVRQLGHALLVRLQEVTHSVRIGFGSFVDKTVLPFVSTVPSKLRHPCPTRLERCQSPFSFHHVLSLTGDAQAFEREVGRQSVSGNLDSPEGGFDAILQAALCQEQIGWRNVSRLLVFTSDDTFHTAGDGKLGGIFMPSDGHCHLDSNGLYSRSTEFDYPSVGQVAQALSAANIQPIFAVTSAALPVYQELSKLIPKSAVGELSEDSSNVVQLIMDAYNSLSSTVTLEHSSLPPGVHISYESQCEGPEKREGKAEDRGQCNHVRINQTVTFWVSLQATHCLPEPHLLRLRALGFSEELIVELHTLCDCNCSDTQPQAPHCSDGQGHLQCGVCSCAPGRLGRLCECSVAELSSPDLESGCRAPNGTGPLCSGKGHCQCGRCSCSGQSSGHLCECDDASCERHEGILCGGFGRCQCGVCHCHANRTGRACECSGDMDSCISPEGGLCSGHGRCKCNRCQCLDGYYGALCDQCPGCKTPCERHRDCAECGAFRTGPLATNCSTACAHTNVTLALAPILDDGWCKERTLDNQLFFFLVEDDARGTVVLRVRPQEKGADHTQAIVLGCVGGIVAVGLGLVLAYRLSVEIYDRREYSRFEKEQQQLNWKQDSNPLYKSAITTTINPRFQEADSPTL
Experimental: (§1) α4β7-K562 Cell Adhesion Assay (α4β7 Mediated Adhesion/VCAM-1) Immulon 96 well plates (Dynex) were coated with 100 μL recombinant hVCAM-1 at 4.0 μg/mL in 0.05 M NaCO3 buffer pH 9.0 overnight at 4° C. (R&D System). Plates were washed 3 times in PBS with 1% BSA and blocked for 1 h @ room temperature in this buffer. PBS was removed and compounds to be tested (50 μL) were added at 2× concentration. A stable cell line of K562 cells expressing human α4β7, (50 μL at 2×10^6/mL) labeled with 5 μM Calcein AM (Molecular Probes) for 1 h at 37° C., were added to each well and allowed to adhere for 1 h at room temperature. Plates were washed 3× in PBS+1% BSA and cells were lysed for 15 minutes in 100 μL of 1 M Tris pH 8.0 with 1% SDS. The plate was read at 485 nm excitation and 530 nm emission.

[1] = system: circulating white blood cells (leukocytes); experiment: Leukocytosis Procedure; format: in vivo, Balb/c mice; conditions: bled 1-1.5 hours after administration
From the text: Background: Leukocytosis is the increase in circulating white blood cells (leukocytes). Luekocytosis can be caused by preventing leukocyte binding to integrin counter-receptor adhesion molecules expressed on high endothelial venules. This cell adhesion occurs between immunoglobulin superfamily molecules and integrins. Relevant examples of these paired interactions include […] Adhesion Molecule-1 and αLβ2 integrin, Vascular Cell Adhesion Molecule-1 and α4β1 integrin, and Mucosal Addressin Cell Adhesion Molecule-1 and α4β7 integrin, respectively.
In this model, a compound that antagonizes these leukocyte-endothelial interactions will cause an increase in circulating leukocytes, defined as leukocytosis, as measured at 1-1.5 hours post-administration. This leukocytosis is indicative that normal lymphocyte or leukocyte emigration from the peripheral circulation was prevented. Similar emigration of cells out of the circulation into inflamed tissues is responsible for the progression and maintenance of the inflammatory state. Leukocytosis is an indication that lymphocyte and leukocyte extravasation is prevented, and is predictive of general anti-inflammatory activity.
1 week prior to being tested, 7-10 week old female Balb/c mice, n=8 per group, were bled and randomized according to leukocyte counts. One week later, the mice were administered a test compound orally or subcutaneously and then bled 1-1.5 hours after drug administration, approximately one hour after the peak blood concentration of the compound had occurred. Whole blood, 250-350 microliters, was collected from each mouse into potassium-EDTA serum collection tubes (Becton-Dickenson) and mixed to prevent clotting.
Cell counts and differential counts on the whole blood preparation were performed using an Advia 120 Hematology System (Bayer Diagnostics). Cell counts as total leukocytes and as total lympohcytes were made and compared to counts made from mice dosed with vehicle only. Data were reported as percent of vehicle control for lymphocyte counts and total leukocyte counts. Statistical analyses were performed using ANOVA with Dunnet's multiple comparison test

α4β1 [2] = biological target: T2, α4β1 (Homo sapiens, UniProt P05556+P13612); experiment: Ramos Cell Adhesion Assay (α4β1 Mediated Adhesion/VCAM-1); format: cell-based; set-up: Ramos cells, (50 μL at 2×10^6/mL) labeled with 5 μM Calcein AM; endogenous in cells; host or cells: Ramos cells
Experimental: as §1, with “Ramos” for “α4β7-K562”, “α4β1” for “(α4β7”, “[…]” for “96”, “Systems).” for “System).”, “Ramos cells,” for “A stable cell line of K562 cells expressing human α4β7,”

α4β1 [3] = biological target: T2, α4β1; conditions: literature (Tamraz et al.); cited from earlier work
[4] = system: oxazolone-induced contact hypersensitivity; conditions: 6 mg/kg, sc; mouse; cited from earlier work
[5] = system: heterotopic heart allograft; conditions: hyperlipidemic rabbit; cited from earlier work

T2 sequence (P05556 21-798, one chain of several): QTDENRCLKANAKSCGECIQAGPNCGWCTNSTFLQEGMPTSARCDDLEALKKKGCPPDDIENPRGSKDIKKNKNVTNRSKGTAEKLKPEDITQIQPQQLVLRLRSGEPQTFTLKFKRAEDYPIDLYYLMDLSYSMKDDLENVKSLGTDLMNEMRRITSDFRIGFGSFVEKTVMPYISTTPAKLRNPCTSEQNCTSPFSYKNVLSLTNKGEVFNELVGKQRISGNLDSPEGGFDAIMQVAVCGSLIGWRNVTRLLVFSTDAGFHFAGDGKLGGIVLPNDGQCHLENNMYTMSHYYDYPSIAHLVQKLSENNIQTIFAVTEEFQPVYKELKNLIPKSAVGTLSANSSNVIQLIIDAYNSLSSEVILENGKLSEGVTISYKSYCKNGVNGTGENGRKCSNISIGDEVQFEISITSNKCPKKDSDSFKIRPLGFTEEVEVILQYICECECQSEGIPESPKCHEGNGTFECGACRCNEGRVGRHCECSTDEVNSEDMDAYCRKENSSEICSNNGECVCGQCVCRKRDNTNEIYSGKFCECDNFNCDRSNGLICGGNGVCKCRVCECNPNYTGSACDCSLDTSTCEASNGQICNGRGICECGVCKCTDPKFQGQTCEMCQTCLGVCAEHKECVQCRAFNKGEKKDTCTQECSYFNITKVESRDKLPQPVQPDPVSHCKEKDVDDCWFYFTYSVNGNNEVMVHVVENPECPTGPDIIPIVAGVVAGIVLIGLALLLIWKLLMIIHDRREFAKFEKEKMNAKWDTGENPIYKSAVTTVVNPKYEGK

| Molecule | IC50 (human α4β7; K562 cells expressing human α4β7 on recombinant hVCAM-1, read-out: α4β7 IC50) [nM] | IC50 (human α4β7; repeated in leukocytosis table, unit inferred, read-out: α4β7) [nM] | Lymphocyte Counts % of Vehicle Control ([1]; 3 mg/kg sc) | Total Leukocyte Counts % of Vehicle Control ([1]; 3 mg/kg sc) | Lymphocyte Counts % of Vehicle Control ([1]; 10 mg/kg sc) | Total Leukocyte Counts % of Vehicle Control ([1]; 10 mg/kg sc) | Lymphocyte Counts % of Vehicle Control ([1]; 30 mg/kg sc) | Total Leukocyte Counts % of Vehicle Control ([1]; 30 mg/kg sc) | IC50 (α4β1 [2]; Ramos cells on recombinant hVCAM-1, read-out: α4β1 IC50) [nM] | IC50 (α4β1 [2]; repeated in leukocytosis table, unit inferred, read-out: α4β1) [nM] | IC50 (α4β1 [3]) [nM] | efficacy in oxazolone-induced contact hypersensitivity [4] | efficacy in heart allograft model [5] |
| --- | --- | --- | --- | --- | --- | --- | --- | --- | --- | --- | --- | --- | --- |
| O=C(Nc1ccc(CC(NC(=O)C2C3CCC(CC3)N2C(=O)CCc2ccccc2)C(=O)O)cc1)c1c(Cl)cncc1Cl (stereo not shown) [Cpd 39] | 7 | 7 | 205.2 % of Vehicle Control | 175.1 % of Vehicle Control | 150.3 % of Vehicle Control | 134.3 % of Vehicle Control | 253.9 % of Vehicle Control | 212.2 % of Vehicle Control | 0.9 | 0.9 |  |  |  |
| Phenylacetyl-Leu-Asp-Phe-D-Pro-NH2 |  |  |  |  |  |  |  |  |  |  | 2000 | efficacy similar to the α4 antibody PS/2 | effective |
